In brackets after ≈: the same amount, converted by molar mass.
Key:
Alzheimer's disease = details: background statement; cited from earlier work
[1] = crystalline form stability test (XRPD after storage at 40° C. and 60% RH for three months); format: physicochemical
Procedure: In the present disclosure, the experimental conditions of X-ray powder diffraction are as follows. The test was performed by an X-ray powder diffractometer (radiation source Cu-kα, μ=1.5418 Å), and the XRPD spectrum with 2θ value of 3˜40° was scanned. The XRPD spectra of crystalline form I in Example 1 and crystalline form II in Example 2 are shown in FIG. 1 and FIG. 5, respectively, and the XRPD data are shown in Table 1. In order to test the stability of the crystalline form, the crystalline form I in Example 1 and the crystalline form II in Example 2 were subjected to powder diffraction test after being left under 40° C. and 60% relative humidity (RH) conditions for three months, and the results are shown in FIG. 1 and FIG. 5, respectively.
Crystalline form stability test: a certain amount of samples were left under 40° C. and 60% RH conditions for three months, and their powder diffraction results were tested, as shown in FIG. 1.
Crystalline form stability test: a certain amount of samples were left under 40° C. and 60% RH conditions for three months, and their powder diffraction results were tested, as shown in FIG. 5.

[2] = apparent solubility tested by HPLC; format: physicochemical; details: for Chromatographic peak area: HPLC peak area of the apparent solubility test; for apparent solubility compared with raw material: HPLC, versus crude raw materials

Row | crystalline form stability (XRPD characteristic peaks versus initial time) [1] | Chromatographic peak area [2] | apparent solubility compared with raw material [2] | Solubility (apparent solubility) ([2]; tested by HPLC) [µg/mL] | solubility ([2]; thermodynamic from solid, tested by HPLC) [µg/mL] | SMILES | effect on Alzheimer's disease in clinical trials (Alzheimer's disease)
1 | – | – | – | – | – | O=C(O)c1cc(NCCc2ccc(C(F)(F)F)cc2)ccc1O [2-hydroxy-5-[2-(4-(trifluoromethylphenyl)ethylamino)]benzoic acid] | good inhibitory effect on Alzheimer's disease
2 | stable and unchanged | 263684 | higher apparent solubility | 1880 (≈ 5.78 mM) | – | O=C(O)c1cc(NCCc2ccc(C(F)(F)F)cc2)ccc1O [Crystalline form I, 2-hydroxy-5-[2-(4-(trifluoromethylphenyl)ethylamino)]benzoic acid] | –
3 | relatively stable | 311308 | higher apparent solubility | 2600 (≈ 7.99 mM) | – | O=C(O)c1cc(NCCc2ccc(C(F)(F)F)cc2)ccc1O [Crystalline form II, 2-hydroxy-5-[2-(4-(trifluoromethylphenyl)ethylamino)]benzoic acid] | –
4 | – | 249333 | – | – | 1770 (≈ 5.44 mM) | O=C(O)c1cc(NCCc2ccc(C(F)(F)F)cc2)ccc1O [Raw material, 2-hydroxy-5-[2-(4-(trifluoromethylphenyl)ethylamino)]benzoic acid] | –
